In assay [1] the target is T1, rat P2X3 receptor (Rattus norvegicus, UniProt P49654).
T1 construct: expressed in transfected cells; host or cells: CHO-K1
T1 sequence (P49654 1-397): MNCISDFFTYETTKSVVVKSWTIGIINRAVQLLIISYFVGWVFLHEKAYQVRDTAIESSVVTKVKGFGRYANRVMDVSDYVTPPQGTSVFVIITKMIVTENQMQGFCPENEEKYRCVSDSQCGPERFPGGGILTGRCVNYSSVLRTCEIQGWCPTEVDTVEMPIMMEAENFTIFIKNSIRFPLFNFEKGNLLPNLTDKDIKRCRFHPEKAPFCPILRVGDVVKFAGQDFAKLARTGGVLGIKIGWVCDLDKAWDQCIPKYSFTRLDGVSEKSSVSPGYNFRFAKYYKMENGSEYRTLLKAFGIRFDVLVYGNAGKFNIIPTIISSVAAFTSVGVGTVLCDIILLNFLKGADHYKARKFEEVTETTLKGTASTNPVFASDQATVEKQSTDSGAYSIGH
Briefly: P2X3/P2X2/3 FLIPR (Fluorometric Imaging Plate Reader) Assay, P2X3. The format is cell-based. To be noted: CHO-K1 cells transfected with rat P2X3; agonist α,β-meATP 1 μM; Table 1; read-out: P2X3 pKi (converted). In a few lines:
(§1)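 Cells are dye-loaded with Fluo-3 AM, then exposed to test compound for 20 minutes at room temperature. Next, α,β-meATP is added (final 1 μM for rat P2X3, 5 μM for human P2X2/3 in CHO-K1), and the peak calcium fluorescence yields inhibition curves by nonlinear regression.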

The target of assay [2] is T2, human P2X2/3 receptor (Homo sapiens, UniProt P56373+Q9UBL9).
T2 construct: expressed in transfected cells; host or cells: CHO-K1
T2 sequence (Q9UBL9 1-471): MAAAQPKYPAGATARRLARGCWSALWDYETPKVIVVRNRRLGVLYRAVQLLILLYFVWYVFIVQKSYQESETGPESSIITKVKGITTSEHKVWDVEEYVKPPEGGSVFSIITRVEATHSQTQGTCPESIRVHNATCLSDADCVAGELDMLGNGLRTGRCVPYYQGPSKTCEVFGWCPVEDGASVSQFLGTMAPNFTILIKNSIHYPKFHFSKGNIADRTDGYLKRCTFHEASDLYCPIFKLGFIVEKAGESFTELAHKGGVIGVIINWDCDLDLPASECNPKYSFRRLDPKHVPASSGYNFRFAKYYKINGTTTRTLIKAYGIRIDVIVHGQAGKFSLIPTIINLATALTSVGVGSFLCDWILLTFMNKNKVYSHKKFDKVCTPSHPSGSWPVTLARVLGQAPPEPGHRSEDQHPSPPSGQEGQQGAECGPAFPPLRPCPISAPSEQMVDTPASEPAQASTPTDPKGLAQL
T2 sequence (P56373 1-397): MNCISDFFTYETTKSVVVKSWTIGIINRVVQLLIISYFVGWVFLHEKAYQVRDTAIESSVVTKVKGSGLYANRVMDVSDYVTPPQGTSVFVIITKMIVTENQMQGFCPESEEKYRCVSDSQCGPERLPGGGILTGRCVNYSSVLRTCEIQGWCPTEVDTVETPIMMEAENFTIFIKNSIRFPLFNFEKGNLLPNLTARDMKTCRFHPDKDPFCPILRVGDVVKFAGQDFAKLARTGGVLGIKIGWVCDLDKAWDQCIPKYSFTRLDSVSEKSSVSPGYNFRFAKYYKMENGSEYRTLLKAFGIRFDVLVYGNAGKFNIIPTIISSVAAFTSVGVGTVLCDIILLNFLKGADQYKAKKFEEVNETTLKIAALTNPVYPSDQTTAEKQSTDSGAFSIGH
In words: P2X3/P2X2/3 FLIPR (Fluorometric Imaging Plate Reader) Assay, P2X2/3. It is filed as cell-based. The conditions noted are these: CHO-K1 cells transfected with human P2X2/3; agonist α,β-meATP 5 μM; Table 1; read-out: P2X2/3 pKi (converted). In a few lines: as §1

`Cc1ccc(-c2cc(C(=O)NC(C)CN(C)C)cc(-n3ncnc3C(C)N(C)C)c2)cc1` (centres unmarked) [Compound 103, 5-[5-(1-Dimethylamino-ethyl)-[1,2,4]triazol-1-yl]-4′-methyl-biphenyl-3-carboxylic acid (2-dimethylamino-1-methyl-ethyl)-amide]: the Ki was 724 nM in assay [1] and 10000 nM in assay [2].
Turning to `Cc1ccc(-c2cc(C(=O)NC3CC3)cc(-n3ncnc3C(C)N(C)C)c2)cc1` (centres unmarked) [Compound 104, 5-[5-(1-Dimethylamino-ethyl)-[1,2,4]triazol-1-yl]-4′-methyl-biphenyl-3-carboxylic acid cyclopropylamide], the Ki was 7.76 nM in assay [1] and 407 nM in assay [2].
Turning to `Cc1ccc(-c2cc(C(=O)N[C@@H](C)CO)cc(-n3ncnc3C(C)N(C)C)c2)cc1` (stereo partly drawn) [Compound 105, 5-[5-(1-Dimethylamino-ethyl)-[1,2,4]triazol-1-yl]-4′-methyl-biphenyl-3-carboxylic acid ((S)-2-hydroxy-1-methyl-ethyl)-amide], the values for the Ki in assay [1] and in assay [2] were 5.25 nM and 646 nM, respectively.
Turning to `CCc1ncnn1-c1cc(C(=O)NC(C)c2cnccn2)cc(-c2ccc(Cl)cn2)c1` (centres unmarked) [Compound 106, 3-(5-Chloro-pyridin-2-yl)-5-(5-ethyl-[1,2,4]triazol-1-yl)-N-(1-pyrazin-2-yl-ethyl)-benzamide], the Ki in assay [1] is 19.1 nM; in assay [2] it was 759 nM.
As to `CCc1ncnn1-c1cc(C(=O)N[C@@H](C)CO)cc(-c2ccc(Cl)cn2)c1` [Compound 107, 3-(5-Chloro-pyridin-2-yl)-5-(5-ethyl-[1,2,4]triazol-1-yl)-N-((S)-2-hydroxy-1-methyl-ethyl)-benzamide], the Ki was 148 nM in assay [1] and 10000 nM in assay [2].
For `CCc1ncnn1-c1cc(C(=O)NC2CC2)cc(-c2ccc(Cl)cn2)c1` [Compound 108, 3-(5-Chloro-pyridin-2-yl)-N-cyclopropyl-5-(5-ethyl-[1,2,4]triazol-1-yl)-benzamide], in that order: 97.7 nM and 4270 nM.
In the case of `CCCc1ncnn1-c1cc(C(=O)NCc2cnc(C)cn2)cc(-c2ccc(Cl)cn2)c1` [Compound 109, 3-(5-Chloro-pyridin-2-yl)-N-(5-methyl-pyrazin-2-ylmethyl)-5-(5-propyl-[1,2,4]triazol-1-yl)-benzamide], the Ki in assay [1] is 5.5 nM; in assay [2], 372 nM.
With `CCCc1ncnn1-c1cc(C(=O)NC(C)c2cnccn2)cc(-c2ccc(Cl)cn2)c1` (centres unmarked) [Compound 110, 3-(5-Chloro-pyridin-2-yl)-5-(5-propyl-[1,2,4]triazol-1-yl)-N-(1-pyrazin-2-yl-ethyl)-benzamide], the figures for the Ki in assay [1] and in assay [2] were 7.24 nM and 355 nM, respectively.
Take `CCCc1ncnn1-c1cc(C(=O)N[C@@H](C)CO)cc(-c2ccc(Cl)cn2)c1` [Compound 111, 3-(5-Chloro-pyridin-2-yl)-N-((S)-2-hydroxy-1-methyl-ethyl)-5-(5-propyl-[1,2,4]triazol-1-yl)-benzamide]: the values for the Ki in assay [1] and in assay [2] were 18.2 nM and 4900 nM, respectively.
In the case of `CCCc1ncnn1-c1cc(C(=O)NC2CC2)cc(-c2ccc(Cl)cn2)c1` [Compound 112, 3-(5-Chloro-pyridin-2-yl)-N-cyclopropyl-5-(5-propyl-[1,2,4]triazol-1-yl)-benzamide], the Ki in assay [1] was 10.2 nM; in assay [2], 1860 nM.
With `CCCc1ncnn1-c1cc(C(=O)NC2CC2)cc(-c2ccc(C)cn2)c1` [Compound 113, N-Cyclopropyl-3-(5-methyl-pyridin-2-yl)-5-(5-propyl-[1,2,4]triazol-1-yl)-benzamide], the results for the Ki in assay [1] and in assay [2] were 4.57 nM and 1580 nM, respectively.
For `CCCc1ncnn1-c1cc(C(=O)N[C@@H](C)CO)cc(-c2ccc(C)cn2)c1` [Compound 114, N-((S)-2-Hydroxy-1-methyl-ethyl)-3-(5-methyl-pyridin-2-yl)-5-(5-propyl-[1,2,4]triazol-1-yl)-benzamide], in that order: 4.79 nM and 2880 nM.
For `CCCc1ncnn1-c1cc(C(=O)NC(C)c2cnccn2)cc(-c2ccc(C)cn2)c1` (centres unmarked) [Compound 115, 3-(5-Methyl-pyridin-2-yl)-5-(5-propyl-[1,2,4]triazol-1-yl)-N-(1-pyrazin-2-yl-ethyl)-benzamide], in that order: 3.31 nM and 79.4 nM.
For `CCCc1ncnn1-c1cc(C(=O)NCc2cnc(C)cn2)cc(-c2ccc(C)cn2)c1` [Compound 116, N-(5-Methyl-pyrazin-2-ylmethyl)-3-(5-methyl-pyridin-2-yl)-5-(5-propyl-[1,2,4]triazol-1-yl)-benzamide], the Ki in assay [1] is 2.51 nM; in assay [2], 85.1 nM.
The like results for `Cc1ccc(-c2cc(C(=O)NCc3cnc(C)cn3)cc(-c3ncn(C(C)C)n3)c2)cc1` [Compound 117, 5-(1-Isopropyl-1H-[1,2,4]triazol-3-yl)-4′-methyl-biphenyl-3-carboxylic acid (5-methyl-pyrazin-2-ylmethyl)-amide] were, in that order, 11.5 nM and 398 nM.
In the case of `Cc1ccc(-c2cc(C(=O)NC(C)c3cnccn3)cc(-n3ncnc3CC(C)C)c2)nc1` (centres unmarked) [Compound 118, 3-(5-Isobutyl-[1,2,4]triazol-1-yl)-5-(5-methyl-pyridin-2-yl)-N-(1-pyrazin-2-yl-ethyl)-benzamide], the Ki is 4.27 nM in assay [1] and 35.5 nM in assay [2].
On to `Cc1ccc(-c2cc(C(=O)NCc3cnc(C)cn3)cc(-n3ncnc3CC(C)C)c2)nc1` [Compound 119, 3-(5-Isobutyl-[1,2,4]triazol-1-yl)-N-(5-methyl-pyrazin-2-ylmethyl)-5-(5-methyl-pyridin-2-yl)-benzamide], for which the Ki in assay [1] is 3.55 nM; in assay [2] it was 23.4 nM.
As for `CC(C)c1ncnn1-c1cc(C(=O)NC(C)c2cnccn2)cc(-c2ccc(Cl)cn2)c1` (centres unmarked) [Compound 120, 3-(5-Chloro-pyridin-2-yl)-5-(5-isopropyl-[1,2,4]triazol-1-yl)-N-(1-pyrazin-2-yl-ethyl)-benzamide], the Ki in assay [1] was 7.59 nM; in assay [2], 132 nM.
With `Cc1cnc(CNC(=O)c2cc(-c3ccc(Cl)cn3)cc(-n3ncnc3C(C)C)c2)cn1` [Compound 121, 3-(5-Chloro-pyridin-2-yl)-5-(5-isopropyl-[1,2,4]triazol-1-yl)-N-(5-methyl-pyrazin-2-ylmethyl)-benzamide], the results for the Ki in assay [1] and in assay [2] were 5.89 nM and 107 nM, respectively.
As for `CC(C)c1ncnn1-c1cc(C(=O)N[C@@H](C)CO)cc(-c2ccc(Cl)cn2)c1` [Compound 122, 3-(5-Chloro-pyridin-2-yl)-N-((S)-2-hydroxy-1-methyl-ethyl)-5-(5-isopropyl-[1,2,4]triazol-1-yl)-benzamide], the Ki in assay [1] was 19.1 nM; in assay [2] it was 1290 nM.
Consider `CC(C)c1ncnn1-c1cc(C(=O)NC2CC2)cc(-c2ccc(Cl)cn2)c1` [Compound 123, 3-(5-Chloro-pyridin-2-yl)-N-cyclopropyl-5-(5-isopropyl-[1,2,4]triazol-1-yl)-benzamide], for which the Ki was 11 nM in assay [1] and 871 nM in assay [2].
In the case of `CCc1ncnn1-c1cc(C(=O)NCc2cnc(C)cn2)cc(-c2ccc(Cl)cn2)c1` [Compound 124, 3-(5-Chloro-pyridin-2-yl)-5-(5-ethyl-[1,2,4]triazol-1-yl)-N-(5-methyl-pyrazin-2-ylmethyl)-benzamide], the Ki in assay [1] was 13.5 nM; in assay [2], 1150 nM.

For the origin of these results see US8440708B2, “Triazole-substituted arylamides as P2X3 and P2X2/3 antagonists” (Roche Palo Alto LLC, priority 2007, dated 2013).
